# Assay results reported in patent US20110218190A1, “THERAPEUTIC USES OF AMPA RECEPTOR MODULATORS FOR TREATMENT OF MOTOR DYSFUNCTION” (THE REGENTS OF THE UNIVERSITY OF CALIFORNIA, priority 2008, published 2011).
# Assays:
# snoring = experiment: Treatment of a patient having snoring; type: in vivo; conditions: about 0.1 to 100 mg/kg body weight
# Procedure: A patient is diagnosed as having snoring. This diagnosis is confirmed by the presence of snoring sounds made by the patient during sleep or conditions associated with snoring.
# (§1) The patient is administered a pharmaceutical formulation of an AMPA receptor modulator. The AMPA receptor modulator is administered to the patient intravenously or orally at a dosage of about 0.1 to 100 mg AMPA receptor modulator/kg body weight as determined by the attending physician. The patient is monitored for reduction or inhibition of snoring and associated symptoms.
# as §1, with “ampakine.” for “AMPA receptor modulator.”, “ampakine” for “AMPA receptor modulator”, “ampakine/kg” for “AMPA receptor modulator/kg”
# as §1, with “CX546. CX546” for “an AMPA receptor modulator. The AMPA receptor modulator”, “CX546/kg” for “AMPA receptor modulator/kg”
# as §1, with “aniracetam. Aniracetam” for “an AMPA receptor modulator. The AMPA receptor modulator”, “aniracetam/kg” for “AMPA receptor modulator/kg”
# as §1, with “benzothiadiazide. Benzothiadiazide” for “an AMPA receptor modulator. The AMPA receptor modulator”, “benzothiadiazide/kg” for “AMPA receptor modulator/kg”
# The patient is administered a pharmaceutical formulation of cyclothiazide. Cyclothiazide is administered to the patient intravenously at a dosage of about 0.1 to 100 mg cyclothiazide/kg body weight as determined by the attending physician. […]
# [1] = system: hypoglossal (XII) nerve discharge, neonatal rat medullary slice preparation; experiment: Integrated hypoglossal (XII) nerve recordings in the in vitro neonatal rat medullary slice preparation; conditions: for ∫XII nerve discharge amplitude: longer-term (>2 hours) bath application; for long-lasting potentiation of ∫XII nerve amplitude: 1-12 hours after
# Procedure: (§2) Experiments were performed on medullary slice preparations from 0-4 day-old neonatal rats that retain functional respiratory networks. Details of the preparation have been previously described. See Funk et al. (1993) J Neurophysiol 70:1497-1515. Briefly, neonatal rats were anesthetized with isoflurane, decerebrated, and the neuraxis isolated by dissection in artificial cerebrospinal fluid (ACSF) [(in mM) 128 NaCl, 3.0 KCl, 1.5 CaCl2, 1.0 mgSO4, 21 NaHCO3, 0.5 Na2HPO4, and 30 D-glucose] equilibrated with 95% 02-5% CO2 at 27-28° C. The neuraxis was sectioned with a vibratome in the transverse plane starting from the rostral medulla to within 150 μm nucleus ambiguous (Smith, J. C. et al., (1991) Science 254(5032):726-729. A single, 700 μm thick transverse slice was then cut, transferred to a 1.5 ml recording chamber and held in place by stainless steel harp. The slice was continuously superfused (≧3 ml/min) by ACSF with extracellular K^+ concentration raised to 9 mM to maintain rhythmic output.
# Respiratory motor output was recorded from cut ends of XII nerve roots rectified, filtered and integrated. Peak amplitude was obtained from signals of XII nerve discharge. The activity in individual XII motoneurons was measured via whole-cell voltage-clamp techniques.
# Cyclothiazide, CX546, and aniracetam were introduced by bath application to determine the effects of cyclothiazide, CX546, and aniracetam on respiratory activity. Stable respiratory activity was recorded for at least 30 minutes preceding drug application. After removal of the drug, recordings continued for over 12 hours.
# [2] = system: genioglossus (GG) muscle activity in anesthetized freely breathing rats; experiment: Genioglossus EMG and respiratory rate in anesthetized freely breathing rats; type: in vivo, Sprague-Dawley rats
# Procedure: Anesthetized freely breathing rats provide a live animal model for determining effects of AMPA receptor modulators on genioglossus (GG) muscle activity.
# Adult Sprague-Dawley rats (˜300 g) were anaesthetized with ketamine (100 mg kg^−1) and xylazine (10 mg kg^−1) injected intraperitoneally. 1-1.5 vol % isoflurane in O2 was inhaled during the experimental stage to provide for stable recordings and continued anesthesia. To measure GG electromyographic activity (EMG), stainless steel wire electrodes were sutured into the muscle. The raw GG EMG signal was rectified filtered and integrated.
# Respiratory frequency and tidal volume were measured via pressure transducer attached to the rostral end of a polyethylene cannula that was inserted into the trachea of the anesthetized rat. The animal was freely breathing without the use of any ventilator or other method of respiratory support. These methods were taken in part from those reported in Tan, W., et al. (2008) Nat. Neurosci. 11(5):538-40 and Janczewski, W. A. and Feldman, J. L. (2006) J. Physiol. 570(Pt 2):407-20, incorporated by reference in their entirety.
# obstructive sleep apnea = experiment: Treatment of a patient having obstructive sleep apnea; type: in vivo; conditions: about 0.1 to 100 mg/kg body weight
# Text: A patient is diagnosed as having obstructive sleep apnea. This diagnosis is confirmed by the presence of obstructive sleep apnea symptoms, including daytime sleepiness, unintentional sleep episodes, unrefreshing sleep, fatigue, or insomnia; awakening with breath holding, gasping, or choking; reports by a bed partner of loud snoring, breathing interruptions, or both in the patient's sleep; sleep study monitoring that documents >5 episodes of hypopnea and apnea per hour. The patient is administered a pharmaceutical formulation of benzothiadiazide. Benzothiadiazide is administered to the patient orally or intravenously at a dosage of about 0.1 to 100 mg benzothiadiazide/kg body weight as determined by the attending physician. The patient is monitored for reduction or inhibition of obstructive sleep apnea and associated symptoms. […] Cyclothiazide is administered to the patient intravenously at a dosage of about 0.1 to 100 mg cyclothiazide/kg body weight as determined by the attending physician. The patient is monitored for reduction or inhibition of obstructive sleep apnea and associated symptoms. […] Aniracetam is administered to the patient intravenously at a dosage of about 0.1 to 100 mg aniracetam/kg body weight as determined by the attending physician. The patient is monitored for reduction or inhibition of obstructive sleep apnea and associated symptoms.
# XII motoneurons = experiment: Whole-cell voltage-clamp of XII motoneurons in the medullary slice; type: cell-based, rat; conditions: 90 μM for 15 minutes
# Procedure: as §2
# XII motoneurons were selected according to a hierarchy of criteria. Selection criteria for respiratory motoneurons are described by Funk et al. (1993) J Neurophysiol 70:1497-1515. […]
# Respiratory motor output was recorded from cut ends of XII nerve roots rectified, filtered and integrated. […] The activity in individual XII motoneurons was measured via whole-cell voltage-clamp techniques.
# [3] = short-duration (1 hour) application, 90 μM, FIG. 2
# [4] = injection into XII motor nucleus (1 μL, 25 mM), 30 minutes post-injection, FIG. 7
# [5] = local application to the IVth ventricle, FIG. 8A
# [6] = micropipette injection into hypoglossal (XII) motor nucleus, 8 minutes after, FIG. 6
smiles,measurement,setting,value
O=C(c1ccc2c(c1)OCCO2)N1CCCCC1 [CX546],snoring,snoring,reduces snoring
same,effect on respiratory rate (frequency) in slice,"[1]; 1-hour bath application, 90 μM",increase in ∫XII nerve discharge and respiration rate that subsides over time with drug removal
same,effect on ∫XII nerve discharge,"[1]; 1-hour bath application, 90 μM, FIG. 1B",induces an increase in ∫XII nerve discharge and respiration rate that subsides over time with drug removal
same,∫XII nerve discharge amplitude,"[1]; 20 μM, FIG. 5A",induces a persistent potentiation of ∫XII nerve discharge amplitude
same,long-lasting potentiation of ∫XII nerve amplitude,[1]; [3],but not CX546 causes long-lasting potentiation
same,average increase of ∫GG activity compared to control,"[2]; intravenous injection into femoral vein, 130 μg/kg, FIG. 9A",15%
same,respiratory rate,"[2]; intravenous injection, 130 μg/kg, FIG. 9B",no long term changes in respiratory rate
same,duration genioglossus muscle activity remained elevated,"[2]; intravenous injection, 130 μg/kg, no diminution of amplitude",more than 2 hours
COc1ccc(C(=O)N2CCCC2=O)cc1 [aniracetam],snoring,snoring,reduces snoring
same,∫XII nerve discharge amplitude,"[1]; 700 μM, FIG. 5B",induces a persistent potentiation of ∫XII nerve discharge amplitude
same,symptoms of obstructive sleep apnea,obstructive sleep apnea,reduces the symptoms of obstructive sleep apnea
NS(=O)(=O)c1cc2c(cc1Cl)NC(C1CC3C=CC1C3)NS2(=O)=O (centres unmarked) [cyclothiazide],XII motoneuron drive currents,"XII motoneurons; 1 hour post-treatment, FIG. 4A",potentiates endogenously generated XII motoneuron drive currents
same,XII motoneuron charge transfer and ∫XII nerve peak amplitude,"XII motoneurons; control vs 1 hour post-treatment, FIG. 4B",induces XII motoneuron charge transfer and increase of ∫XII nerve amplitude
same,snoring,snoring,reduces snoring
same,effect on respiratory rate (frequency) in slice,"[1]; 1-hour bath application, 90 μM",minor effects on respiratory rate (frequency)
same,potentiation of hypoglossal (∫XII) nerve discharge amplitude,"[1]; 1-hour bath application, 90 μM, FIG. 1A",2 fold
same,dose-response of normalized ∫XII nerve amplitude,"[1]; 1 hour following a 1 hour application of 3, 9, 30, or 90 μM, FIG. 3",∫XII nerve amplitude increases as a function of cyclothiazide concentration
same,persistence of potentiation of ∫XII nerve discharge amplitude,"[1]; after 1-hour bath application, 90 μM, drug removed",> 12 h
same,long-lasting potentiation of ∫XII nerve amplitude,[1]; [3],causes long-lasting potentiation of ∫XII nerve amplitude
same,increase of ∫XII nerve output,"[1]; short-duration (1 hour) application, 90 μM, group data 1-12 hours after, FIG. 2",200-300%
same,average increase of ∫GG activity relative to control,[2]; [4],300%
same,peak increase of ∫GG activity relative to control,[2]; [4],600%
same,average increase of ∫GG activity compared to control,[2]; [5],50%
same,peak increase of ∫GG activity compared to control,[2]; [5],150%
same,respiratory rate,"[2]; local application to the IVth ventricle, FIG. 8B",without affecting respiratory rate
same,duration of elevation of ∫GG activity,"[2]; local application to the IVth ventricle, until the end of the experiment",~90 min
same,respiratory frequency,[2]; [6],does not affect respiratory frequency
same,∫GG activity,[2]; [6],induces an increase in ∫GG activity
same,symptoms of obstructive sleep apnea,obstructive sleep apnea,reduces the symptoms of obstructive sleep apnea
